Measured values as given in patent US5102885A, “Imidazoquinoxaline compounds and their use” (Novo Nordisk A/S, priority 1989, dated 1992).

test system: benzodiazepine receptors; experiment: In vivo displacement of 3H-flunitrazepam specific binding to brain benzodiazepine receptors in mice; parameters: species or system mice (female, NMR); details: test substance i.p. 15 min before 3H-FNM i.v. (4 μCi), sacrificed 20 min after 3H-FNM, forebrain
Excerpt: The pharmaceutical properties of the compounds of the invention can be illustrated by determining their capability for displacing radioactive labelled flunitrazepam from benzodiazepine receptors.
The displacement activity of the compounds of the invention may be found by determining the ED50 value. The ED50 value represents the dose (mg/kg) of a test substance which causes the specific binding of flunitrazepam to benzodiazepine receptors in a living brain to be reduced to 50% of the control value.
Such an in vivo test is carried out as follows:
Twenty minutes after a dose of ^3 H-flunitrazepam (^3 H-FNM) (200 μCi/kg, i.v.) the amount of specific ^3 H-FNM binding to brain benzodiazepine receptors has reached its maximal value.
Suspensions of test substances (2 mg/ml) are prepared in 5% Duphasol-X (TM Duphar, castor oil-ethylene oxide derivative for emulsifying and solubilizing oil and other water-insoluble substances) by sonification for 10 min using a Branson B15 microtip ultrasonifier (setting 7). Groups of three mice (female, NMR, 18-22 grams) are injected with the test substance at 100 mg/kg intraperitoneally. Fifteen minutes after test substance administration the mice are challenged with 4 μCi intravenously of ^3 H-FNM (70-90 Ci/mole) in 200 μl physiological saline. Twenty minutes after ^3 H-FNM administration mice are sacrificed by decapitation, the forebrains rapidly excised (within 30 sec) and homogenized in 12 ml of icecold 25 mM KH2 PO4, pH 7.1, using an Ultra-Turrax homogenizer fitted with an N 10 shaft. Two aliquots of 1 ml are immediately filtered through Whatman GF/C glassfibre filters and washed with 2×5 ml of the above mentioned buffer. The amounts of radioactivity on the filters are determined by conventional scintillation counting. One group of untreated mice serves as control. One to three mice are injected with 25 μg/kg clonazepam i.p. 30 minutes before ^3 H-FNM to determine the amount of non-specific ^3 H-FNM binding, which should be between 8-15% of total binding. […]
The ED50 value is determined from dose response curves.

| SMILES | ED50 (dose which inhibits 50% of specific 3H-flunitrazepam binding to benzodiazepine receptors in living brain) [mg/kg] |
| --- | --- |
| CC(C)n1c(=O)c2c(C(=O)CC(=O)C3CC3)ncn2c2ccccc21 [Compound 2, 3-(3-cyclopropyl-1,3-dioxopropyl)-4,5-dihydro-5-isopropyl-4-oxo-imidazo[1,5-a]quinoxaline] | 1.5 |
| CC(=O)CC(=O)c1ncn2c1c(=O)n(C(C)C)c1ccccc12 [Compound 4, 4,5-dihydro-5-isopropyl-4-oxo-3-(1,3-dioxobutyl)-imidazo-[1,5-a]quinoxaline] | 1.4 |
| CC(C)(C)n1c(=O)c2c(C(=O)CC(=O)C3CC3)ncn2c2ccccc21 [Compound 6, 5-tert-butyl-3-(3-cyclopropyl-1,3-dioxopropyl)-4,5-dihydro-4-oxo-imidazo[1,5-a]quinoxaline] | 2.5 |
